Source: US20090170932A1, “DISINFECTANT COMPOSITIONS, METHODS AND SYSTEMS” (Tyco Healthcare Group LP, priority 2007, published 2009)
Where “and” joins values, the source holds several entries; their conditions need not be identical. Equal values may be shown once.

Assays:
[1] = test system: Staphylococcus aureus (organism # 25923); experiment: pH experiments: MIC at adjusted pH, NCCLS micro-dilution; type: cell-based; settings: S. aureus
Protocol: (§1) In order to determine MIC and MBC (minimum bactericidal concentration) a National Committee on Clinical Laboratory Standards (NCCLS) micro-dilution procedure was followed. […] In the current protocol 100 μL of MHB was mixed with 90 μL of formulation and 10 μL of log 8 organism or the highest achievable concentration. The concentration of the formulation was adjusted to obtain the required concentration in the final solution. The mixture was incubated at 37 degree C. for 16-24 hrs. After 16-24 hours the absorbance value was read at 600 nm. The obtained data was corrected by subtracting the appropriate blanks. Finally, the wells having an absorbance≧0.1 were marked + and <0.1 were marked −. The + symbol indicated growth while − symbol indicates no growth. […] Staphylococcus aureus (organism # 25923) was obtained from ATCC. […] N-acetyl cysteine (NAC) was used (Acros, Catalogue # 160280250, Lot # A0229576). A 4 wt % NAC solution in water was prepared at a pH of 4. A 4 wt % NAC solution in water was prepared at a pH of 6. […] These solutions were then serially diluted as necessary to obtain the required concentrations. […]

[2] = test system: Staphylococcus aureus (organism # 25923); experiment: pH experiments: MBC (minimum bactericidal concentration); type: cell-based; settings: S. aureus
Protocol: as §1

[3] = test system: P. aeruginosa; experiment: Checkerboard Titration (FIC index); type: cell-based; settings: for FIC of the single component (FIC-NAC, FIC-VC): P. aeruginosa, MIC in combination / MIC alone
Protocol: (§2) The method used was a NCCLS micro-dilution procedure. […] The following concentrations were tested (for S. aureus see FIG. 9 and for P. aeruginosa see FIG. 7 for combinations at a pH<4): [table] Fraction Inhibitory Concentration (FIC) is defined as the MIC of the compound in combination divided by the MIC of the compound alone. If the FIC index is ≦0.5, the combination is interpreted to be synergistic; <1 but >0.5-as partially synergistic; =1 as additive; >1 but <4 as indifferent; and ≧4 as antagonistic.

[4] = test system: S. aureus; experiment: Checkerboard Titration (FIC index), pH<4; type: cell-based; settings: for FIC of the single component (FIC-NAC, FIC-VC): S. aureus, MIC in combination / MIC alone
Protocol: as §2

[5] = test system: blood coagulation (clotting); experiment: Prothrombin Time (PT) Assay, INR; type: biochemical; settings: single agent, within the tested range
Protocol: Experiments were conducted to assess the anticoagulant capacities of NAC, Vitamin C and combinations of NAC and Vitamin C via a Prothrombin Time (PT) Assay. A PT assay (TM-4339-063) was conducted using a Coagulation Analyzer to obtain PT instead of manually recording the PT. […] INR (International Normalized Ratio) is a system established by the World Health Organization (WHO) and the International Committee on Thrombosis and Hemostasis for reporting the results of blood coagulation (clotting) tests. INR is calculated as: INR=([…] sample/PTnormal control)^ISI ISI (International Sensitivity Index) indicates the sensitivity of individual thromboplastin. […] All the PTs greater than 3× the […] 1 (normal control) were replaced with 31 seconds.

[6] = Osmolarity of solutions; type: physicochemical; settings: 4 wt % (w/v) of each component in solution
From the text: Formulation and production of disinfectant compositions of the present disclosure are generally straightforward. […] The disinfectant solution may then be sterilized using conventional means, such as filtration and/or ultrafiltration, and other means. […] The solutions are preferably formulated using USP materials.

[7] = test system: blood coagulation; settings: patients; cited publications; cited from earlier work
[8] = cited from earlier work
[9] = in vivo; cited from earlier work
[10] = test system: Candida Albicans (Organism # 10231); experiment: MIC test, NCCLS micro-dilution; type: cell-based; settings: C. albicans; pH not adjusted
Protocol: (§3) The minimum concentration of a composition required to inhibit growth is known as the minimum inhibitory concentration (MIC). In order to determine MIC a National Committee on Clinical Laboratory Standards (NCCLS) micro-dilution procedure was followed. […] In the current protocol 100 μL of MHB was mixed with 90 μL of formulation and 10 μL of log 8 organism or the highest achievable concentration. The concentration of the formulation was adjusted to obtain the required concentration in the final solution. The mixture was incubated at 37 degree C. for 16-24 hrs. After 16-24 hours the absorbance value was read at 600 nm. The obtained data was corrected by subtracting the appropriate blanks. Finally, the wells having an absorbance≧0.1 were marked + and <0.1 were marked −. The + symbol indicated growth while − symbol indicates no growth. […] In cases where the positive growth controls corrected absorbance is lower than 0.5, an alternate rule is utilized which is “absorbance<than 20% of positive growth control is marked as − growth, while absorbance≧than 20% of positive growth control is marked as + growth”. Staphylococcus aureus (organism # 25923), Pseudomonas aeruginosa (Organism # 27853) and Candida Albicans (Organism # 10231) was obtained from ATCC. […] N-acetyl cysteine (NAC) was used (Acros, Catalogue # 160280250, Lot # A0229576). A 8 wt % NAC solution in water was prepared. […]

[11] = test system: Staphylococcus aureus (organism # 25923); experiment: MIC test, NCCLS micro-dilution; type: cell-based; settings: S. aureus; pH not adjusted (pH < 4); listed as VC
Protocol: as §3

[12] = pH of 6, 2.0 wt % starting point
[13] = pH=6, 2.0% (w/v) starting point

| MIC ([1]; pH of 4) | MIC [1, 12] [wt %] | MIC ([1]; pH=4) | MIC [1, 13] | MIC-NAC / MIC-VC (MIC of the component in combination with the other) ([3]; P. aeruginosa in MHB) | MIC-NAC / MIC-VC (MIC of the component in combination with the other) ([4]; S. aureus in MHB) | osmolarity [6] [mOsm/Kg] | MIC [10] [wt %] | MIC [11] [wt %] | MIC ([1]; pH of 6, 2.0 wt % starting point, listed as VC) [wt %] | SMILES | MBC ([2]; pH of 4) [wt %] | MBC ([2]; pH=4) | FIC of the single component (FIC-NAC, FIC-VC) [3] | FIC of the single component (FIC-NAC, FIC-VC) [4] | Change of INR with increase in concentration [5] | Anti-coagulant effect (literature) [7] | Solubility in chloroform and ether [8] | dose shown to be safe for administration to humans [9] [mg/day] |
| --- | --- | --- | --- | --- | --- | --- | --- | --- | --- | --- | --- | --- | --- | --- | --- | --- | --- | --- |
| 2.0 wt % and 2 wt % | >2 | 2.0 % (w/v) | > 2.0 % (w/v) | 0.25 % (w/v) | 0.25 % (w/v) | 237 |  |  |  | CC(=O)N[C@@H](CS)C(=O)O [NAC, N-acetyl-L-cysteine] | 2.0 | 2.0 % (w/v) | 0.35 | 0.4 | increase in INR | some anti-coagulant effect | practically insoluble | 1200 |
| 0.5 wt % | > 2.0 | 0.5 % (w/v) | > 2.0 % (w/v) |  |  | 223 | > 8 | 0.25 | >2 | O=C1O[C@H]([C@@H](O)CO)C(O)=C1O [Vitamin C, L-ascorbic acid] | 1.0 | 1.0 % (w/v) | 0.35 | 0.4 | no significant increase in INR | has not been identified as an effective anticoagulant when compared with heparin |  |  |
